Blank lines part the entries; values can stand above or below the substance they belong to. No end group written: not given here.
Columns and labels:
human Y4 receptor = human Y4 receptor (Homo sapiens, UniProt P50391); assay: Human Y Receptor-4 Displacement Assay; conditions: for binding to the Y4 receptor compared with code 6672: comparator compound of SEQ ID NO:72 (code 6672)
Text: Human Y Receptor-4 Displacement Assay:
The principle of the displacement assay is a fixed quantity of radiolabeled ligand competes with varying doses of a ‘cold’ (non-labelled) ligand for a limited number of receptor binding sites, enabling quantification of the affinity of the cold ligand to the receptor.
The cDNA clone was transformed into competent E.coli so a larger preparation of DNA could be produced which was transfected into HEK-293T cells. Using antibiotics, cells expressing the transfected cDNA were selected for, and those cells containing the receptor plasmid were scaled up for a cell membrane preparation. Cells were harvested from culture flasks by scraping, and then homogenized and the membrane separated from other cellular material by differential centrifugation.
For the displacement assay all reagents are prepared in displacement assay buffer (25 mM HEPES pH 7.4, 2 mM MgCl2, 4 mM CaCl2 1% BSA, 4 mM) containing protease inhibitors (2 mM phenylmethanesulphonylfluoride, 0.5 mM diprotin A and 0.5 mM phosphoramidon). One thousand counts/sec/tube ^I125PP (iodinated by the direct iodogen method) is used as the radiolabeled peptide, and the competing peptide is tested at varying concentrations between 10 uM and 0.02 pM, with each concentration tested in a minimum of duplicate. To each assay tube a volume of the prepared membrane, enough for total counts (where no competing peptide is present) of 10000-15000 counts/240 second is added. Reagents are added in the following order: buffer, label competing peptide and cell membrane, with a total volume is 500 μl.
The assay is incubated at room temperature for 90 minutes before the receptor-^125PP complex is separated from free label by centrifugation at 15600 g for 3 minutes. The supernatant is removed and discarded and the pellet resuspended and washed with 500 μl fresh assay buffer and re-centrifuged. After centrifugation and removal of supernatant the radioactivity of the pellet was measured for 240 seconds using a γ-counter. Specific binding is calculated as the difference between the amount of ^125I-PP bound in the absence (total) and presence (non-specific) of unlabelled peptide. From the binding data, an IC50 for the competing peptide is calculated. Each peptide is tested on a minimum of two separate occasions.

mice = conditions: peripheral administration; cited from earlier work
Male C57BL/6 mice = assay: In vivo food intake experiments in mice (half-life in the blood judged from appetite suppression); design: species or system mouse; conditions: comparator native human PP; judged from food intake reduction in mice (4-8 h, 0-24 h, 4:1 or 24:1 ratio)
Method: In Vivo Food Intake Experiments
Male C57BL/6 mice (20-30 g) were used for all mouse experiments. Mice were individually housed in IVC cages. Animals were randomized by weight and fasted overnight for 16 hrs before intraperitoneal injection at 9 am. All peptide solutions were prepared freshly the morning of the study and injected as 100 ul. Food intake was measured at 1, 2, 3, 4, 6, 8 and 24 hours post injection. The peptide was dosed at 30 nmol/kg, 50 nmol/kg, 100 nmol/kg, 120 nmol/kg, 150 nmol/kg, 300 nmol/kg, 600 nmol/kg or 1000 nmol/kg depending on the activity. In each case, a control of saline and a control of unmodified human Pancreatic Polypeptide was carried out. All statistics are calculated using a one-way ANOVA with Dunnett's post-test or one-way ANOVA with Bonferroni post-test.
A control of saline was used.
FIG. 2 and in the comparative graph of FIG. 3. […] It is hypothesized that that is as a possible result of stronger activity at the receptor and longer activity.
The mouse is a good model for degradation rates in humans, irrespective of the fact that the receptors for PP in mice are different from the human receptor.

Y5 receptor = molecular target: T1, Y5 receptor (Homo sapiens, UniProt Q15761); conditions: cited from earlier work
T1 sequence (Q15761 1-445): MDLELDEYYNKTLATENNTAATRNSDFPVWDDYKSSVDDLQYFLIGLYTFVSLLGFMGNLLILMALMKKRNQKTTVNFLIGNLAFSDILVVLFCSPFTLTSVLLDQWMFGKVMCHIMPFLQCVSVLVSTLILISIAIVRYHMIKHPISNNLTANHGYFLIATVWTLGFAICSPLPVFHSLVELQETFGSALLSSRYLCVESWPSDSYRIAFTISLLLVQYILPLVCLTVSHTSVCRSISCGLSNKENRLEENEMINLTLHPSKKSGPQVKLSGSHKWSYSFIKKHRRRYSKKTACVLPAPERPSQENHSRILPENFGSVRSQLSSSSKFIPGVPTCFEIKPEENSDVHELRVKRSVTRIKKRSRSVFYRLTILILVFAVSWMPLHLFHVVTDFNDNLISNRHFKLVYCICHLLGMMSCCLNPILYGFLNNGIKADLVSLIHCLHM

[1] = injected intracerebroventricularly; cited from earlier work
healthy volunteers = conditions: cited from earlier work
[2] = system: children with Prader-Willi syndrome; conditions: 100 pmol/kg/h for 90 minutes; cited from earlier work

Sequence of human Y4 receptor (P50391 whole entry): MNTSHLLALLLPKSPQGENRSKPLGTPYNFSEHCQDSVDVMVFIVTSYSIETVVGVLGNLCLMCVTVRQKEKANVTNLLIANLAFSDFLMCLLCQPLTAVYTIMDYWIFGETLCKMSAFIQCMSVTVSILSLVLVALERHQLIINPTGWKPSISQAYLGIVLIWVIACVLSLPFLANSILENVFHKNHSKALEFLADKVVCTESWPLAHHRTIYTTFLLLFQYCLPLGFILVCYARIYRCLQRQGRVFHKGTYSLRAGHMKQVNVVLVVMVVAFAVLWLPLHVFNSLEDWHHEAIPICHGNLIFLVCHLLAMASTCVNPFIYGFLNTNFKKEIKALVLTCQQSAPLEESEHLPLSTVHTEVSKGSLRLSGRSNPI

Substance: 7215 (AAPLEPVYPGDNATPEQMAQYAAALRRYINKLTRPRY) [compound 7215]
binding at the Y4 receptor compared with code 7214 (human Y4 receptor; comparator SEQ ID NO:167 (code 7214)): still further better binding at the Y4 receptor

binding to the Y4 receptor compared with code 6672 (human Y4 receptor): stronger binders
Substance: 6675 (KPLEPVYPGDNATPEELNRYYASLRRYINMLTRPRY) [compound 6675]

Substance: mouse PP: mouse Pancreatic Polypeptide, literature (APLEPMYPGDYATPEQMAQYETQLRRYINTLTRPRY; ends and bridges not checked; UniProt P10601 30-65, looked up)
effect on energy balance, food intake and energy expenditure (mice): induce a negative energy balance by decreasing food intake and stimulating energy expenditure

Substance: 4059668 (GAPLEPHFPGDNATPEEMAKYAAELRRYINKLTRPRY; synthetic hPP analogue peptide) [compound 4059668]
half-life in the blood compared with native human PP (Male C57BL/6 mice): longer half-life

Substance: 2-36[K^4, RYYSA^19-23]PP
affinity to the Y5-receptor (Y5 receptor): strong affinity
effect on food intake [1]: strong stimulatory effect on food intake

Substance: 6435 (KPLEPVYPGDNATPEQMAQYAADLRRYINMLTRPRY) [compound 6435]
half-life in the blood compared with native human PP (Male C57BL/6 mice): longer half-life

binding to the Y4 receptor compared with code 6672 (human Y4 receptor): stronger binders
Substance: 6674 (KPLEPVYPGDNATPEELNRYYASLRRYINMLTRPRY) [compound 6674]

binding to the Y4 receptor compared with codes 6433 and 4055855 (human Y4 receptor; comparators SEQ ID NO:9 (Ala 0, code 6433) and SEQ ID NO:281 (Lys 30, code 4055855)): binds the Y4 receptor better
Substance: 7218 (AAPLEPVYPGDNATPEQMAQYAADLRRYINKLTRPRY) [compound 7218]

Substance: [K^4]PP
affinity to the Y5-receptor (Y5 receptor): strong affinity
effect on food intake [1]: strong stimulatory effect on food intake

Substance: Ala Pro Leu Glu Pro Val Tyr Pro Gly Asp Asn Ala Thr Pro Glu Gln Met Ala Gln Tyr Ala Ala Asp Leu Arg Arg Tyr Ile Asn Met Leu Thr Arg Pro Arg Tyr NH2 [native human PP]
reduction in energy intake (healthy volunteers; infusion 5 pmol/kg/min (300 pmol/kg/h) for 90 minutes): 11%
effect on appetite and food intake (healthy volunteers; infusion 10 pmol/kg/min (600 pmol/kg/h) for 90 minutes): reduce appetite and food intake
decrease in 24 hour cumulative energy intake (healthy volunteers; infusion 10 pmol/kg/min for 90 minutes): 25%
effect on appetite [2]: no effect on appetite

Substance: [RYYSA^19-23]PP
affinity to the Y5-receptor (Y5 receptor): strong affinity
effect on food intake [1]: strong stimulatory effect on food intake

Source: patent US20100279930A1, “HUMAN PANCREATIC POLYPEPTIDE (HPP) ANALOGUES AND THEIR EFFECTS ON FEEDING BEHAVIOUR” (priority 2007, published 2010)
